What was measured:
MCF7 = assay: Cytotoxicity against Homo sapiens (human) MCF7 cells assessed as survival at 100 uM after 24 hr by MTT assay relative to control; format: functional; settings: MCF7, 24 h, read-out: Survival
HepG2 = assay: Cytotoxicity against Homo sapiens (human) HepG2 cells assessed as survival at 100 uM after 24 hr by MTT assay relative to control; format: functional; settings: HepG2, 24 h, read-out: Survival
HeLa = assay: Cytotoxicity against Homo sapiens (human) HeLa cells assessed as survival at 100 uM after 24 hr by MTT assay relative to control; format: functional; settings: read-out: Survival
HT-29 = assay: Cytotoxicity against Homo sapiens (human) HT-29 cells assessed as survival at 100 uM after 24 hr by MTT assay relative to control; format: functional; settings: HT-29, 24 h, read-out: Survival
[1] = Cytotoxicity against Homo sapiens (human) NF103 cells assessed as survival at 100 uM after 24 hr by MTT assay relative to control; format: cell-based; settings: read-out: Survival

Compound `O=S(=O)(c1ccc(Cl)cc1)N1CCC(C(O)(c2ccccc2)c2ccccc2)CC1` has a viability at 100 µM (MCF7) of 61.4%, a viability at 100 µM (HepG2) of 52.2% and a viability at 100 µM (HeLa) of 49.7%. For the same compound, the viability at 100 µM (HT-29) was 69.6% and the viability at 24 h, 100 µM [1] was 53%.

Work on `O=[N+]([O-])c1ccccc1S(=O)(=O)N1CCC(C(O)(c2ccccc2)c2ccccc2)CC1` yielded a viability at 100 µM (MCF7) of 73.8%, a viability at 100 µM (HepG2) of 57.2% and a viability at 100 µM (HeLa) of 64.3%. It also gave a viability at 100 µM (HT-29) of 78.5% and a viability at 24 h, 100 µM [1] of 63.4%.

Compound `O=[N+]([O-])c1cccc(S(=O)(=O)N2CCC(C(O)(c3ccccc3)c3ccccc3)CC2)c1` has a viability at 100 µM (MCF7) of 63.4%, a viability at 100 µM (HepG2) of 64.2% and a viability at 100 µM (HeLa) of 70.3%. The viability at 100 µM (HT-29) was 75% and the viability at 24 h, 100 µM [1] was 57.4%.

Work on `O=[N+]([O-])c1ccc(S(=O)(=O)N2CCC(C(O)(c3ccccc3)c3ccccc3)CC2)cc1` yielded a viability at 100 µM (MCF7) of 69.8%, a viability at 100 µM (HepG2) of 68.7% and a viability at 100 µM (HeLa) of 54%. For the same compound, the viability at 100 µM (HT-29) was 70.8% and the viability at 24 h, 100 µM [1] was 53.6%.

For `Cc1ccc(S(=O)(=O)N2CCC(C(O)(c3ccccc3)c3ccccc3)CC2)cc1`, the viability at 100 µM (MCF7) was 70.2%, the viability at 100 µM (HepG2) was 62.7% and the viability at 100 µM (HeLa) was 71.2%. For the same compound, the viability at 100 µM (HT-29) was 45.1% and the viability at 24 h, 100 µM [1] was 65.6%.

`Cc1noc(C)c1S(=O)(=O)N1CCC(C(O)(c2ccccc2)c2ccccc2)CC1` gave a viability at 100 µM (MCF7) of 38.7%, a viability at 100 µM (HepG2) of 52.2% and a viability at 100 µM (HeLa) of 39.9%. It also gave a viability at 100 µM (HT-29) of 73.6% and a viability at 24 h, 100 µM [1] of 53.8%.

For `CS(=O)(=O)N1CCC(C(O)(c2ccccc2)c2ccccc2)CC1`, the viability at 100 µM (MCF7) was 60.5%, the viability at 100 µM (HepG2) was 60.9% and the viability at 100 µM (HeLa) was 64.4%. The viability at 100 µM (HT-29) was 74.7% and the viability at 24 h, 100 µM [1] was 64%.

For `O=S(=O)(c1ccccc1)N1CCC(C(O)(c2ccccc2)c2ccccc2)CC1`, the viability at 100 µM (MCF7) was 65.8%, the viability at 100 µM (HepG2) was 68.3% and the viability at 100 µM (HeLa) was 68.3%. It also gave a viability at 100 µM (HT-29) of 73.9% and a viability at 24 h, 100 µM [1] of 63%.

With `CCCc1ccc(S(=O)(=O)N2CCC(C(O)(c3ccccc3)c3ccccc3)CC2)cc1` the viability at 100 µM (MCF7) was 68.7%, the viability at 100 µM (HepG2) was 62.6% and the viability at 100 µM (HeLa) was 73.1%. It also gave a viability at 100 µM (HT-29) of 74.2% and a viability at 24 h, 100 µM [1] of 60%.

Work on `CC(C)S(=O)(=O)N1CCC(C(O)(c2ccccc2)c2ccccc2)CC1` yielded a viability at 100 µM (MCF7) of 70.5%, a viability at 100 µM (HepG2) of 64.7% and a viability at 100 µM (HeLa) of 78.5%. It also gave a viability at 100 µM (HT-29) of 77.6% and a viability at 24 h, 100 µM [1] of 60%.

Work on `O=S(=O)(c1ccc(Cl)cc1F)N1CCC(C(O)(c2ccccc2)c2ccccc2)CC1` yielded a viability at 100 µM (MCF7) of 44.2%, a viability at 100 µM (HepG2) of 46.3% and a viability at 100 µM (HeLa) of 39.2%. The viability at 100 µM (HT-29) was 47.2% and the viability at 24 h, 100 µM [1] was 51.8%.

Work on `O=S(=O)(CCl)N1CCC(C(O)(c2ccccc2)c2ccccc2)CC1` yielded a viability at 100 µM (MCF7) of 66%, a viability at 100 µM (HepG2) of 59.1% and a viability at 100 µM (HeLa) of 56.1%. It also gave a viability at 100 µM (HT-29) of 45.2% and a viability at 24 h, 100 µM [1] of 53.5%.

Work on `O=S(=O)(Cc1ccccc1)N1CCC(C(O)(c2ccccc2)c2ccccc2)CC1` yielded a viability at 100 µM (MCF7) of 69.7%, a viability at 100 µM (HepG2) of 39.1% and a viability at 100 µM (HeLa) of 70.1%. For the same compound, the viability at 100 µM (HT-29) was 76.5% and the viability at 24 h, 100 µM [1] was 59.8%.

From ChEMBL document CHEMBL3045253, “Synthesis and in vitro antiproliferative activity of diphenyl(sulphonylpiperidin-4-yl)methanol derivatives” (Med Chem Res, 2010)
